We go through 1 compound from patent publication US20260256792A1, “TREATMENT OF CHRONIC SPONTANEOUS URTICARIA BY ADMINISTERING (R)-2-[3-[4-AMINO-3-(2-FLUORO-4-PHENOXY-PHENYL)PYRAZOLO[3,4-D]PYRIMIDIN-1-YL]PIPERIDINE-1-CARBONYL]-4-METHYL-4-[4-(OXETAN-3-YL)PIPERAZIN-1-YL]PENT-2-ENENITRILE” (priority 2023, published 2026).

The subject of data set [1] is immune thrombocytopenic purpura (ITP). Conditions: cited from earlier work.
The test system of a further data set is CYP3A. Conditions: cited from earlier work.
The next data set relates to healthy volunteers. Conditions: cited from earlier work.
A further data set concerns cardiac repolarization. The conditions noted are these: healthy volunteers (N=51), also supratherapeutic doses; cited from earlier work.
Another data set has as its system IgG anti-FcεRI. The experiment in a line: Phase 2 CSU study: serum IgG anti-FcεRI ELISA. The format is in vivo, human. Conditions: for IgG anti-FcεRI (arbitrary unit) Median Percent Change from Baseline: Baseline to Week 12. From the text:
Blood samples were also collected through Week 12 to evaluate the change in baseline in various biomarkers, including sMRGPRX2, IgG anti-TPO, IgG anti-FCεRI, IgG anti-IgE, and IL-31.
Collection of biological samples for other biomarker research was also part of this study. The following samples for biomarker research were required and were to be collected from all participants in this study: • Serum and plasma samples for soluble biomarkers and cellular tests. Analytes included IgG anti-IgE, IgG anti-FcεRI, IgG anti-TPO, IgE anti-TPO, IL-31, and sMRGPRX2. • Blood samples for immune cell phenotyping, including measurement of eosinophil levels • Blood samples for BTK occupancy in peripheral blood mononuclear cells (PBMCs) at selected sites
For each patient, serum samples were to be collected on each of four visits (Visits 2, 4, 6, and end of study/follow up).
If dilutions were to be prepared, the same dilutions were to be prepared twice from each sample. These were to be measured on different plates. Each plate was to include a standard curve. Samples were to be measured twice for all biomarkers except for sMRGPRX2. Mean measurement values were to be calculated, and the concentration of the biomarker was to be calculated using GraphPad Prism 9 software (4-PL model).
For the IgG anti-FcεRI ELISA, MaxiSorp plates were coated overnight with […] recombinant human FcεRIα and blocked with 10% protein-free blocking buffer diluted in assay buffer. Following the addition of serum samples (1:100 in assay buffer) or the hIgG anti-FcεRI standard (1:2 serial dilution in assay buffer), the plates were incubated at room temperature. Next, the anti-IgG-HRP detection antibody was added to all samples. Development was performed using ECL-prime solution and chemiluminescent signal intensity was measured on the Victor5 multimode plate reader.
Assay data ranges are described below. • sMRGPRX2: 0.1 ng/mL-10 ng/mL • IgG anti-FCεRI: 0-10000 arbitrary units (AU) • IgG anti-TPO: 0-3000 international units (IU) • IgE anti-TPO: 0-500 AU • IgG anti-IgE: 0-100000 AU • IL-31: 0.1 ng/mL-20 ng/mL

For data set [2], the system named is rat collagen-induced arthritis model. Conditions: cited from earlier work.
In data set [3] the test system is naturally occurring pemphigus foliaceus (PF). Conditions: dogs with newly diagnosed pemphigus foliaceus; cited from earlier work.

For the compound `CC(C)(C=C(C#N)C(=O)N1CCC[C@@H](n2nc(-c3ccc(Oc4ccccc4)cc3F)c3c(N)ncnc32)C1)N1CCN(C2COC2)CC1` [rilzabrutinib, (R)-2-[3-[4-amino-3-(2-fluoro-4-phenoxy-phenyl)pyrazolo[3,4-d]pyrimidin-1-yl]piperidine-1-carbonyl]-4-methyl-4-[4-(oxetan-3-yl)piperazin-1-yl]pent-2-enenitrile], the “treatment-emergent serious adverse events (TESAEs)” value in data set [1] (ITP Phase 1/2) is listed as “no treatment-emergent serious adverse events”. For the same compound, the “participants achieving the primary response endpoint” value in data set [1] (ITP, treatment for at least 12 weeks) is recorded as 50%. Moreover, the CYP3A inhibition entry in the data set with CYP3A is reported as “mild inhibitor”. Further, in the data set with healthy volunteers, the “most commonly reported adverse events” value was “gastrointestinal adverse events, including nausea/vomiting and diarrhea”. Moreover, the “serious adverse events or deaths” value in the data set with healthy volunteers is on record as “No serious adverse events or deaths”. For the same compound, the “effects on cardiac repolarization (ECG parameters incl. corrected QT interval)” value with cardiac repolarization is given as “does not exert clinically relevant effects”. In addition, the “reduction from baseline for IgG anti-FCFRI” value in the data set with IgG anti-FcεRI (400 mg TID, Week 12) turned out to be 38.7%. The entries for the “IgG anti-FcεRI (arbitrary unit) Median Percent Change from Baseline” value in the data set with IgG anti-FcεRI (400 mg BID), with IgG anti-FcεRI (400 mg QPM) and in the data set with IgG anti-FcεRI (400 mg TID) were −39.0%, −20.4% and −38.7%, respectively. In addition, the rat collagen-induced arthritis result in data set [2] was “full disease reversal”. Besides, the “cases with disease controlled without corticosteroid” value in data set [3] is on record as 4 of 4.
